Where “and” joins values, the source holds several entries; their conditions need not be identical. Equal values may be shown once.
Legend:
[1] = Pharmacokinetic study: plasma concentration and plasma PK parameters after IV/PO dosing (LC-MS/MS, WinNonlin); format: in vivo, Male SD Rat; conditions: male SD rat, vehicle 20% HP-β-CD in water (POA, freebase) or water (salts); for F / F, Mean: PO 10 mg/kg (equal to freebase) vs IV 3 mg/kg freebase; for F / concentration in plasma / Tmax / AUCInf / AUClast / AUClast/D / AUC—% Extrap_obs / Cmax / MRTInf_obs / T1/2: individual rats; for F, Mean / concentration in plasma, Mean / AUCInf, Mean / AUClast, Mean / AUClast/D, Mean / AUC—% Extrap_obs, Mean / Cmax, Mean / MRTInf_obs, Mean / T1/2, Mean / Tmax, Mean: mean n=3; for concentration in plasma / concentration in plasma, Mean / Tmax / AUCInf / AUClast / AUClast/D / AUC—% Extrap_obs / Cmax / MRTInf_obs / T1/2 / AUCInf, Mean / AUClast, Mean / AUClast/D, Mean / AUC—% Extrap_obs, Mean / Cmax, Mean / MRTInf_obs, Mean / T1/2, Mean / Tmax, Mean: PO 10 mg/kg (equal to freebase); for Tmax / AUCInf / AUClast / AUClast/D / AUC—% Extrap_obs / Cmax / MRTInf_obs / T1/2 / AUCInf, Mean / AUClast, Mean / AUClast/D, Mean / AUC—% Extrap_obs, Mean / Cmax, Mean / MRTInf_obs, Mean / T1/2, Mean / Tmax, Mean: plasma
Description: Pharmacokinetic and Brain Penetration Study
Dose formulation processing during dosing: The dose formulations will be kept at room temperature.
Concentrations of Test Article in the plasma samples will be analyzed using a LC-MS/MS method.
WinNonlin (Phoenix™, version 6.1) or other similar software will be used for pharmacokinetic calculations. The following pharmacokinetic parameters will be calculated, whenever possible from the plasma concentration versus time data:
IV administration: T1/2, C0, AUClast, AUCinf, MRTinf, Cl, Vss, Number of Points for Regression.
PO administration: T1/2, Cmax, Tmax, MRTinf, AUCinf, AUClast, F %, Number of Points for Regression.
The pharmacokinetic data will be described using descriptive statistics such as mean, standard deviation.

[2] = Solubility studies in water at 2 hours; format: physicochemical
[3] = Dynamic vapor sorption (DVS), hygroscopicity at 25° C.; format: physicochemical; conditions: for hygroscopicity (DVS) / water absorbed in DVS: 25° C.; for water absorbed in DVS: at 80% RH
Experimental: Dynamic Vapor Sorption (DVS)
DVS was determined using DVS Intrinsic (SMS, UK). Transfer about 20 to 50 mg of the compound into a SMS dynamic vapor sorption model DVS and record the weight change with respect to a varying atmospheric humidity at 25° C.

| SMILES | F, Mean [1] [%] | concentration in plasma ([1]; 0 h) | concentration in plasma ([1]; 0.25 h, 10 mg/kg) | concentration in plasma, Mean ([1]; 0.25 h) [ng/mL] | concentration in plasma ([1]; 0.5 h, 10 mg/kg) | concentration in plasma, Mean ([1]; 0.5 h) [ng/mL] | concentration in plasma ([1]; 1 h, 10 mg/kg) | concentration in plasma, Mean ([1]; 1 h) [ng/mL] | concentration in plasma ([1]; 2 h, 10 mg/kg) | concentration in plasma, Mean ([1]; 2 h) [ng/mL] | concentration in plasma ([1]; 4 h, 10 mg/kg) | concentration in plasma, Mean ([1]; 4 h) [ng/mL] | concentration in plasma ([1]; 8 h, 10 mg/kg) | concentration in plasma, Mean ([1]; 8 h) [ng/mL] | AUCInf, Mean [1] [ng·h/mL] | AUClast, Mean [1] [ng·h/mL] | AUClast/D, Mean [1] [kg·ng·h/mL/mg] | AUC—% Extrap_obs, Mean [1] [%] | Cmax, Mean [1] [ng/mL] | MRTInf_obs, Mean [1] [h] | other results |
| --- | --- | --- | --- | --- | --- | --- | --- | --- | --- | --- | --- | --- | --- | --- | --- | --- | --- | --- | --- | --- | --- |
| COc1cc2c(cc1OC)[C@@H]1Cc3ccc(O)c(OC)c3CN1CC2.Cl [TLZ-16 HCl] | 27.1 | BLOQ (BLOQ = below limit of quantitation (0.2 ng/mL)) | 236 ng/mL and 239 ng/mL and 385 ng/mL | 287 | 225 ng/mL and 217 ng/mL and 356 ng/mL | 266 | 130 ng/mL and 149 ng/mL and 173 ng/mL | 151 | 135 ng/mL and 129 ng/mL and 115 ng/mL | 126 | 109 ng/mL and 60.3 ng/mL and 79.2 ng/mL | 82.8 | 44.3 ng/mL and 15.6 ng/mL and 14.1 ng/mL | 24.7 | 919 | 891 | 89 | 3.70 | 287 | 3.32 | F ([1]; listed as TLZ-16 HC1): 35.9% and 20.7% and 24.7%; concentration in plasma ([1]; 24 h, 10 mg/kg): 0.356 ng/mL and BLOQ (BLOQ = below limit of quantitation (0.2 ng/mL)) (2×); Tmax [1]: 0.25 h; AUCInf ([1]; listed as TLZ-16 HC1, 10 mg/kg): 1217 ng·h/mL and 703 ng·h/mL and 837 ng·h/mL; AUClast ([1]; listed as TLZ-16 HC1, 10 mg/kg): 1216 ng·h/mL and 658 ng·h/mL and 798 ng·h/mL; AUClast/D ([1]; listed as TLZ-16 HC1, 10 mg/kg): 122 kg·ng·h/mL/mg and 65.8 kg·ng·h/mL/mg and 79.8 kg·ng·h/mL/mg; AUC—% Extrap_obs ([1]; listed as TLZ-16 HC1, 10 mg/kg): 0.101% and 6.34% and 4.66%; Cmax ([1]; listed as TLZ-16 HC1, 10 mg/kg): 236 ng/mL and 239 ng/mL and 385 ng/mL; MRTInf_obs ([1]; listed as TLZ-16 HC1, 10 mg/kg): 4.53 h and 2.86 h and 2.58 h; T1/2 ([1]; listed as TLZ-16 HC1, 10 mg/kg): 2.39 h and 1.98 h and 1.92 h; T1/2, Mean [1]: 2.09 h; Tmax, Mean [1]: 15 min; solubility in water [2]: approximately 19.1 mg/mL; hygroscopicity (DVS) [3]: slightly hygroscopic; solid form after DVS test [3]: does not change; water absorbed in DVS [3]: about 0.57% |
| COc1cc2c(cc1OC)[C@@H]1Cc3ccc(O)c(OC)c3CN1CC2.O=C(O)/C=C\C(=O)O [TLZ-16 maleate] | 25.5 | BLOQ (BLOQ = below limit of quantitation (0.2 ng/mL)) | 138 ng/mL and 257 ng/mL and 438 ng/mL | 278 | 132 ng/mL and 290 ng/mL and 287 ng/mL | 236 | 118 ng/mL and 206 ng/mL and 176 ng/mL | 167 | 106 ng/mL and 175 ng/mL and 55.8 ng/mL | 112 | 104 ng/mL and 116 ng/mL and 69.3 ng/mL | 96.4 | 40.8 ng/mL and 34.5 ng/mL and 34.1 ng/mL | 36.5 | 998 | 814 | 81 | 19.0 | 289 | 4.78 | F [1]: 21.7% and 33.4% and 21.3%; concentration in plasma ([1]; 24 h): BLOQ (BLOQ = below limit of quantitation (0.2 ng/mL)); AUCInf ([1]; 10 mg/kg): 965 ng·h/mL and 1132 ng·h/mL and 898 ng·h/mL; AUClast ([1]; 10 mg/kg): 725 ng·h/mL and 1007 ng·h/mL and 709 ng·h/mL; AUClast/D ([1]; 10 mg/kg): 72.5 kg·ng·h/mL/mg and 101 kg·ng·h/mL/mg and 70.9 kg·ng·h/mL/mg; AUC—% Extrap_obs ([1]; 10 mg/kg): 24.9% and 11.1% and 21.0%; Cmax ([1]; 10 mg/kg): 138 ng/mL and 290 ng/mL and 438 ng/mL; MRTInf_obs ([1]; 10 mg/kg): 5.88 h and 3.67 h and 4.80 h; T1/2 ([1]; 10 mg/kg): 4.08 h and 2.52 h and 3.83 h; Tmax ([1]; 10 mg/kg): 0.25 h (2×) and 0.5 h; T1/2, Mean [1]: 3.48 h; Tmax, Mean [1]: 20 min; solubility in water [2]: approximately 11.0 mg/mL; hygroscopicity (DVS) [3]: slightly hygroscopic; solid form after DVS test [3]: does not change; water absorbed in DVS [3]: about 0.085 wt % |
